Assay results taken from patent US6872805B2 (Bristol-Myers Squibb Company, priority 2000, dated 2005).

Experiments:
[1] = target: HCV NS3/4A protease complex (Hepatitis C virus genotype 1a, UniProt P27958, C1454S/C1711G); assay: Recombinant HCV NS3/4A protease complex FRET peptide assay (strain not stated); assay type: biochemical; settings: IC50, NS3/4A protease enzyme assay, strain not stated; activity ranges
[2] = system: HCV replicon in Huh7 cells; assay: HCV replicon cell-based assay; parameters: species or system HCV strain 1B; settings: Hepatitis C virus, Huh-7, 96 h; HCV replicon, Huh7 cells, 4 days; activity ranges; read-out: EC50
Outline: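 Genotype 1b subgenomic replicon Huh7 cells exposed to compound 4 days at 37° C in 4% FCS, 0.5% DMSO medium. EC50 from TaqMan RT-PCR of HCV RNA, normalized to total RNA by RiboGreen; CC50 from alamar Blue fluorescence after 4 h.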

HCV NS3/4A protease complex, sequence (P27958 1027-1711, stated change not applied): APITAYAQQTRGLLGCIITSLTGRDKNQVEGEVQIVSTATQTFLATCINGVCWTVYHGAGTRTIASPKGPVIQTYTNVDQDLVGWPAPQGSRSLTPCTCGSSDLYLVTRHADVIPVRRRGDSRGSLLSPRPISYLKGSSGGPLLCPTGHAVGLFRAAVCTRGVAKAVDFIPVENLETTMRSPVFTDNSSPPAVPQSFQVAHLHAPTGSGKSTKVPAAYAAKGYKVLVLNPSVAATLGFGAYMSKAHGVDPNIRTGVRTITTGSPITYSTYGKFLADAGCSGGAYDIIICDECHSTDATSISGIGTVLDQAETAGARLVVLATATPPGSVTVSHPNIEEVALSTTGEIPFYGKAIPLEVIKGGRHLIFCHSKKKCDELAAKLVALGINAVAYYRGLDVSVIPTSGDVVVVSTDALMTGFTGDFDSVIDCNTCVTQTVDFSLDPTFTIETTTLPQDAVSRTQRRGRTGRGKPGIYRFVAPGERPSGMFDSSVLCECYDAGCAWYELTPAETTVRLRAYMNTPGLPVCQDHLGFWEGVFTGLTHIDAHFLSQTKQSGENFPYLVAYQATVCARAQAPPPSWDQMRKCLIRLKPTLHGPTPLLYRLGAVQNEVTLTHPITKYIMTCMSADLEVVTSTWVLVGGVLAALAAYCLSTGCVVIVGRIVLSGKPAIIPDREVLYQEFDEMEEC
HCV NS3/4A protease complex, sequence (P27958 1027-1711, stated change not applied): as above

| SMILES | IC50 [1] [nM] | EC50 [2] [nM] |
| --- | --- | --- |
| C=CC1C[C@]1(NC(=O)[C@@H]1C[C@@H](Oc2cc(-c3ccccc3)nc3cc(OC)ccc23)CN1C(=O)C(NC(=O)OC(C)(C)C)C(C)(C)C)C(=O)NS(=O)(=O)c1ccccc1I (stereo partly shown) [Compound 56] | < 50 | < 500 |
| C=CC1C[C@]1(NC(=O)[C@@H]1C[C@@H](Oc2cc(-c3ccccc3)nc3cc(OC)ccc23)CN1C(=O)C(NC(=O)OC(C)(C)C)C(C)(C)C)C(=O)NS(=O)(=O)c1ccccc1C(=O)OC (stereo partly shown) [Compound 57] | < 500 | < 500 |
| C=CC1C[C@]1(NC(=O)[C@@H]1C[C@@H](Oc2cc(-c3ccccc3)nc3cc(OC)ccc23)CN1C(=O)C(NC(=O)OC(C)(C)C)C(C)(C)C)C(=O)NS(=O)(=O)c1ccc(OC)cc1 (stereo partly shown) [Compound 59] | < 50 | < 50 |
| C=CC1C[C@]1(NC(=O)[C@@H]1C[C@@H](Oc2cc(-c3ccccc3)nc3cc(OC)ccc23)CN1C(=O)C(NC(=O)OC(C)(C)C)C(C)(C)C)C(=O)NS(=O)(=O)c1ccc(C(C)(C)C)cc1 (stereo partly shown) [Compound 60] | < 500 | < 500 |
| C=CC1C[C@]1(NC(=O)[C@@H]1C[C@@H](Oc2cc(-c3ccccc3)nc3cc(OC)ccc23)CN1C(=O)[C@@H](NC(=O)OC(C)(C)C)C(C)(C)C)C(=O)N[S+]([O-])C(C)(C)C (stereo partly shown) [Compound 61] | < 500 | < 5000 |
| C=CC1C[C@]1(NC(=O)[C@@H]1C[C@@H](Oc2cc(-c3ccccc3)nc3cc(OC)ccc23)CN1C(=O)C(NC(=O)OC(C)(C)C)C(C)(C)C)C(=O)NS(=O)(=O)c1ccccc1C (stereo partly shown) [Compound 63] | < 50 | < 500 |
| COc1ccc2c(O[C@@H]3C[C@@H](C(=O)NC4(C(=O)NS(=O)(=O)C5CC5)CC4)N(C(=O)[C@@H](NC(=O)OC(C)(C)C)C(C)(C)C)C3)cc(-c3ccccc3)nc2c1 [Compound 67] | < 50 | < 5000 |
| CCC(C)[C@H](NC(=O)OC(C)(C)C)C(=O)N1C[C@H](Oc2cc(-c3ccccc3)nc3cc(OC)ccc23)C[C@H]1C(=O)NC1(C(=O)NS(=O)(=O)C2CC2)CC1 (stereo partly shown) [Compound 68] | < 50 | < 5000 |
| C=CC1CC1(NC(=O)OC(C)(C)C)C(=O)N1C[C@H](Oc2cc(-c3ccccc3)nc3cc(OC)ccc23)C[C@H]1C(=O)N[C@]1(C(=O)NS(=O)(=O)C2CC2)CC1CC (stereo partly shown) [Compound 69] | < 500 | < 500 |
| C=CC1C[C@]1(NC(=O)[C@@H]1C[C@@H](Oc2cc(-c3ccccc3)nc3cc(OC)ccc23)CN1C(=O)[C@@H](NC(=O)OC(C)(C)C)C(C)C)C(=O)NS(=O)(=O)C1CCC1 (stereo partly shown) [Compound 71] | < 50 | < 50 |
| C=CC1C[C@]1(NC(=O)[C@@H]1C[C@@H](Oc2cc(-c3ccccc3)nc3cc(OC)ccc23)CN1C(=O)[C@@H](NC(=O)OC(C)(C)C)C1CCCC1)C(=O)NS(=O)(=O)C1CCC1 (stereo partly shown) [Compound 72] | < 500 | < 500 |
| C=CC1CC1(NC(=O)[C@@H]1C[C@@H](Oc2cc(-c3ccccc3)nc3cc(OC)ccc23)CN1C(=O)[C@@H](NC(=O)OC(C)(C)C)C(C)(C)C)C(=O)NS(C)(=O)=O (stereo partly shown) [Compound 86] | < 50 | < 500 |
| C=CC1CC1(NC(=O)[C@@H]1C[C@@H](Oc2cc(-c3ccccc3)nc3cc(OC)ccc23)CN1C(=O)[C@@H](NC(=O)OC(C)(C)C)C(C)C)C(=O)NS(C)(=O)=O (stereo partly shown) [Compound 89] | < 500 | < 5000 |
| C=CC1CC1(NC(=O)[C@@H]1C[C@@H](Oc2cc(-c3ccccc3)nc3cc(OC)ccc23)CN1C(=O)[C@@H](NC(=O)OC(C)(C)C)C(C)(C)C)C(=O)NS(=O)(=O)C1CC1 (stereo partly shown) [Compound 91] | < 50 | < 50 |
| C=C[C@@H]1C[C@]1(NC(=O)C1C[C@@H](Oc2cc(-c3ccccc3)nc3cc(OC)ccc23)CN1C(=O)[C@@H](NC(C)=O)C(C)(C)C)C(=O)NS(=O)(=O)C1CC1 (stereo partly drawn) [Compound 98, 1-(2S-Acetylamino-3,3-dimethyl-butyryl)-4R-(7-methoxy-2-phenyl-quinolin-4-yloxy)-pyrrolidine-2S-carboxylic acid (1R-cyclopropanesulfonylaminocarbonyl-2S-vinyl-cyclopropyl)amide] | < 50 | < 500 |
| C=C[C@@H]1C[C@]1(NC(=O)C1C[C@@H](Oc2cc(-c3ccccc3)nc3cc(OC)ccc23)CN1C(=O)[C@@H](NC(=O)C(F)(F)F)C(C)(C)C)C(=O)NS(=O)(=O)C1CC1 (stereo partly drawn) [Compound 99, 1-[3,3-dimethyl-2S-(2,2,2-trifluoro-acetylamino)-butyryl]-4R-(7-methoxy-2-phenylquinolin-4-yloxy)pyrrolidine-2S-carboxylic acid(1R-cyclopropanesulfonylaminocarbonyl-2S-vinylcyclopropyl)amide] | < 50 | < 500 |
| C=C[C@@H]1C[C@]1(NC(=O)C1C[C@@H](Oc2cc(-c3ccccc3)nc3cc(OC)ccc23)CN1C(=O)[C@@H](NC(=O)CCC(=O)O)C(C)(C)C)C(=O)NS(=O)(=O)C1CC1 (stereo partly drawn) [Compound 100, N-{1S-[2S-(1R-cyclopropanesulfonylaminocarbonyl-2S-vinyl-cyclopropylcarbamoyl)-4R-(7-methoxy-2-phenyl-quinolin-4-yloxy)-pyrrolidine-1-carbonyl]-2,2-dimethyl-propyl}-succinamic acid] | < 50 | < 500 |
| C=C[C@@H]1C[C@]1(NC(=O)C1C[C@@H](Oc2cc(-c3ccccc3)nc3cc(OC)ccc23)CN1C(=O)[C@@H](NC(=O)C(C)(C)C)C(C)(C)C)C(=O)NS(=O)(=O)C1CC1 (stereo partly drawn) [Compound 101, 1-[2S-(2,2-Dimethylpropionylamino)-3,3-dimethyl-butyryl]-4R-(7-methoxy-2-phenyl-quinolin-4-yloxy)-pyrrolidine-2S-carboxylic acid (1R-cyclo-propanesulfonylaminocarbonyl-2S-vinylcyclopropyl)-amide] | < 50 | < 500 |
| C=C[C@@H]1C[C@]1(NC(=O)C1C[C@@H](Oc2cc(-c3ccccc3)nc3cc(OC)ccc23)CN1C(=O)[C@@H](NC(=O)CO)C(C)(C)C)C(=O)NS(=O)(=O)C1CC1 (stereo partly drawn) [Compound 102, 1-[2S-(2-hydroxy-acetylamino)-3,3-dimethyl-butyryl]-4R-(7-methoxy-2-phenyl-quinolin-4-yloxy)-pyrrolidine-2S-carboxylic acid (1R-cyclopropanesulfonylamino-carbonyl-2S-vinyl-cyclopropyl)-amide] | < 50 | < 500 |
| C=C[C@@H]1C[C@]1(NC(=O)C1C[C@@H](Oc2cc(-c3ccccc3)nc3cc(OC)ccc23)CN1C(=O)[C@@H](NC(=O)CC(C)(C)C)C(C)(C)C)C(=O)NS(=O)(=O)C1CC1 (stereo partly drawn) [Compound 103, 1-[2S-(3,3-Dimethyl-butyrylamino)-3,3-dimethyl-butyryl]-4R-(7-methoxy-2-phenyl-quinolin-4-yloxy)-pyrrolidine-2S-carboxylic acid (1R-cyclopropanesulfonylaminocarbonyl-2S-vinyl-cyclopropyl)amide] | < 50 | < 50 |
| C=C[C@@H]1C[C@]1(NC(=O)C1C[C@@H](Oc2cc(-c3ccccc3)nc3cc(OC)ccc23)CN1C(=O)[C@@H](NC(=O)CC1CC1)C(C)(C)C)C(=O)NS(=O)(=O)C1CC1 (stereo partly drawn) [Compound 104, 1-[2S-(2-cyclopropyl-acetylamino)-3,3-dimethyl-butyryl]-4R-(7-methoxy-2-phenyl-quinolin-4-yloxy)-pyrrolidine-2S-carboxylic acid (1R-cyclopropanesulfonylaminocarbonyl-2S-vinyl-cyclopropyl)-amide] | < 50 | < 50 |
| C=CC1CC1(NC(=O)C1CC(Oc2cc(-c3ccccc3)nc3cc(OC)ccc23)CN1C(=O)C(NC(=O)C1C2CC1C2)C(C)(C)C)C(=O)NS(=O)(=O)C1CC1 (stereo not drawn) [Compound 105, 1-{2S-[(bicyclo[1.1.1]pentane-2-carbonyl)-amino]-3,3-dimethyl-butyryl}-4R-(7-methoxy-2-phenyl-quinolin-4-yloxy)-pyrrolidine-2S-carboxylic acid (1R-cyclopropanesulfonylaminocarbonyl-2S-vinylcyclopropyl)amide] | < 50 | < 50 |
| C=C[C@@H]1C[C@]1(NC(=O)C1C[C@@H](Oc2cc(-c3ccccc3)nc3cc(OC)ccc23)CN1C(=O)[C@@H](NC(=O)COC(C)=O)C(C)(C)C)C(=O)NS(=O)(=O)C1CC1 (stereo partly drawn) [Compound 106, acetic acid {1S-[2S-(1R-cyclopropanesulfonylaminocarbonyl-2S-vinyl-cyclopropylcarbamoyl)-4R-(7-methoxy-2-phenyl-quinolin-4-yloxy)-pyrrolidine-1-carbonyl]-2,2-dimethyl-propylcarbamoyl}-methyl ester] | < 50 | < 500 |
| C=C[C@@H]1C[C@]1(NC(=O)C1C[C@@H](Oc2cc(-c3ccccc3)nc3cc(OC)ccc23)CN1C(=O)[C@@H](NC(=O)COC)C(C)(C)C)C(=O)NS(=O)(=O)C1CC1 (stereo partly drawn) [Compound 107, 1-[2S-(2-methoxy-acetylamino)-3,3-dimethyl-butyryl]-4R-(7-methoxy-2-phenyl-quinolin-4-yloxy)-pyrrolidine-2S-carboxylic acid (1R-cyclopropanesulfonylamino-carbonyl-2S-vinyl-cyclopropyl)-amide] | < 50 | < 500 |
| C=C[C@@H]1C[C@]1(NC(=O)C1C[C@@H](Oc2cc(-c3ccccc3)nc3cc(OC)ccc23)CN1C(=O)[C@@H](NC(=O)COc1ccc(OC)cc1)C(C)(C)C)C(=O)NS(=O)(=O)C1CC1 (stereo partly shown) [Compound 108] | < 50 | < 500 |
| C=C[C@@H]1C[C@]1(NC(=O)C1C[C@@H](Oc2cc(-c3ccccc3)nc3cc(OC)ccc23)CN1C(=O)[C@@H](NC(=O)COc1ccc(F)cc1)C(C)(C)C)C(=O)NS(=O)(=O)C1CC1 (stereo partly drawn) [Compound 109, 1-{2S-[2-(4-Fluoro-phenoxy)-acetylamino]-3,3-dimethyl-butyryl}-4R-(7-methoxy-2-phenyl-quinolin-4-yloxy)-pyrrolidine-2S-carboxylic acid (1R-cyclopropanesulfonylaminocarbonyl-2S-vinylcyclopropyl)-amide] | < 50 | < 500 |
